Experimental data: patent publication US20240390340A1 (INCYTE CORPORATION, priority 2023, published 2024)

What was measured:
KRAS G12D = KRAS G12D (Homo sapiens, UniProt P01116, G12D); experiment: GDP-GTP exchange assay (bodipy-GDP/GppNHp, SOS1), KRAS G12D; format: biochemical; conditions: bodipy-loaded KRAS G12D 2.5 nM, 4 h pre-incubation; value for the most potent isomer quoted for certain compounds; read-out: G12D (KRAS G12D exchange assay IC50)
KRAS G12V = KRAS G12V (Homo sapiens, UniProt P01116, G12V); experiment: GDP-GTP exchange assay (bodipy-GDP/GppNHp, SOS1), KRAS G12V; format: biochemical; conditions: KRAS G12V mutant; value for the most potent isomer quoted for certain compounds; read-out: G12V (KRAS G12V exchange assay IC50)
Sequence of KRAS G12V (P01116 1-188 isoform P01116-2 G12V): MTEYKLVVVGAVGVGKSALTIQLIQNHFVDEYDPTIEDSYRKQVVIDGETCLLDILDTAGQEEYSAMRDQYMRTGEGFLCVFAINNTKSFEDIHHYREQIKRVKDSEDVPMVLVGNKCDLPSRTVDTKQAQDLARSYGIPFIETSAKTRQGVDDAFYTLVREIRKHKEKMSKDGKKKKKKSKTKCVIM

Sequence of KRAS G12D (P01116 1-188 isoform P01116-2 G12D): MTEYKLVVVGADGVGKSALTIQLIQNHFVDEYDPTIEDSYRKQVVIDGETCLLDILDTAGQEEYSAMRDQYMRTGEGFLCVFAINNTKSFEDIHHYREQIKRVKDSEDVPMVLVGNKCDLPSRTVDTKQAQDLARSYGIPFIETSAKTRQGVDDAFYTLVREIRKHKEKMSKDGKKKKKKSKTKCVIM

Structure (SMILES) | IC50 (KRAS G12D) | IC50 (KRAS G12V)
Cc1nc2c(F)c(-c3cccc(Cl)c3Cl)c(CCC#N)cc2c2c1cc([C@H]1C[C@H](OC[C@H]3C[C@H](C#N)C3)CN1C(=O)C1CC1)n2[C@H]1[C@H]2CN[C@@H]1C2 [Example 402] | ≤ 0.1 µM | ≤ 0.1 µM
Cc1nc2c(F)c(-c3cccc(Cl)c3Cl)c(CCC#N)cc2c2c1cc([C@H]1C[C@H](Oc3cccc(C#N)c3)[C@@H](C)N1C(=O)C1CC1)n2[C@H]1[C@H]2CN[C@@H]1C2 [Example 213] | 0.1 to 1 µM | ≤ 0.1 µM
Cc1nc2c(F)c(-c3cccc(Cl)c3Cl)c(CCC#N)cc2c2c1cc([C@H]1C[C@H](OCc3cnsc3)CN1C(=O)C1CC1)n2[C@H]1[C@H]2CN[C@@H]1C2 [Example 110] | ≤ 0.1 µM | ≤ 0.1 µM
COc1cc(O[C@H]2C[C@H](c3cc4c(C)nc5c(F)c(-c6cccc(Cl)c6Cl)c(CCC#N)cc5c4n3[C@H]3[C@H]4CN[C@@H]3C4)N(C(=O)C3CC3)C2)ccc1C#N [Example 287] | ≤ 0.1 µM | ≤ 0.1 µM
Cc1nc2c(F)c(-c3cccc(Cl)c3Cl)c(CCC#N)cc2c2c1cc([C@H]1C[C@H](n3cc(C(F)(F)F)nn3)CN1C(=O)C1CC1)n2[C@H]1[C@H]2CN[C@@H]1C2 [Example 414] | ≤ 0.1 µM | ≤ 0.1 µM
Cc1nc2c(F)c(-c3cccc(Cl)c3Cl)c(CCC#N)cc2c2c1cc([C@H]1C[C@H](Oc3cccc(C4CC4)c3)CN1C(=O)C1CC1)n2[C@H]1[C@H]2CN[C@@H]1C2 [Example 169] | ≤ 0.1 µM | ≤ 0.1 µM
Cc1nc2c(F)c(-c3cccc(Cl)c3Cl)c(CCC#N)cc2c2c1cc([C@H]1C[C@H](Oc3ccccc3)CN1C(=O)C1CC1)n2[C@H]1[C@H]2CN[C@@H]1C2 [Example 103] | ≤ 0.1 µM | ≤ 0.1 µM
Cc1nc2c(F)c(-c3cccc(Cl)c3Cl)c(CCC#N)cc2c2c1cc([C@H]1C[C@H](OC(C)c3c(F)cccc3F)CN1C(=O)C1CC1)n2[C@H]1[C@H]2CN[C@@H]1C2 (some centres unmarked) [Example 227] | ≤ 0.1 µM | ≤ 0.1 µM
Cc1nc2c(F)c(-c3cccc(Cl)c3Cl)c(CCC#N)cc2c2c1cc([C@H]1C[C@H](OCc3cccnc3Cl)CN1C(=O)C1CC1)n2[C@H]1[C@H]2CN[C@@H]1C2 [Example 253] | ≤ 0.1 µM | ≤ 0.1 µM
Cc1nc2c(F)c(-c3cccc(Cl)c3Cl)c(CCC#N)cc2c2c1cc([C@H]1C[C@H](Oc3c(F)cc(C#N)cc3F)CN1C(=O)C1CC1)n2[C@H]1[C@H]2CN[C@@H]1C2 [Example 293] | ≤ 0.1 µM | ≤ 0.1 µM
COc1nccc(C#N)c1O[C@H]1C[C@H](c2cc3c(C)nc4c(F)c(-c5cccc(Cl)c5Cl)c(CCC#N)cc4c3n2[C@H]2[C@H]3CN[C@@H]2C3)N(C(=O)C2CC2)C1 [Example 298] | ≤ 0.1 µM | ≤ 0.1 µM
Cc1nc2c(F)c(-c3cccc(Cl)c3Cl)c(CCC#N)cc2c2c1cc([C@H]1C[C@H](OC3CCOC3)CN1C(=O)C1CC1)n2[C@H]1[C@H]2CN[C@@H]1C2 (some centres unmarked) [Example 364] | ≤ 0.1 µM | ≤ 0.1 µM
COc1cc(O[C@H]2C[C@H](c3cc4c(C)nc5c(F)c(-c6cccc(Cl)c6Cl)c(CCC#N)cc5c4n3[C@H]3[C@H]4CN[C@@H]3C4)N(C(=O)C3CC3)C2)ccn1 [Example 304] | ≤ 0.1 µM | ≤ 0.1 µM
CO[C@H]1C[C@H](CO[C@H]2C[C@H](c3cc4c(C)nc5c(F)c(-c6cccc(Cl)c6Cl)c(CCC#N)cc5c4n3[C@H]3[C@H]4CN[C@@H]3C4)N(C(=O)C3CC3)C2)C1 [Example 401] | ≤ 0.1 µM | ≤ 0.1 µM
Cc1nc2c(F)c(-c3cccc(Cl)c3Cl)c(CCC#N)cc2c2c1cc([C@H]1C[C@H](n3cc(CCC(=O)O)nn3)CN1C(=O)C1CC1)n2[C@H]1[C@H]2CN[C@@H]1C2 [Example 322] | ≤ 0.1 µM | ≤ 0.1 µM
Cc1ncc(CO[C@H]2C[C@H](c3cc4c(C)nc5c(F)c(-c6cccc(Cl)c6Cl)c(CCC#N)cc5c4n3[C@H]3[C@H]4CN[C@@H]3C4)N(C(=O)C3CC3)C2)s1 [Example 90] | ≤ 0.1 µM | ≤ 0.1 µM
Cc1nc2c(F)c(-c3cccc(Cl)c3Cl)c(CCC#N)cc2c2c1cc([C@H]1C[C@H](n3nnc(-c4cccc(OC(F)(F)F)c4)n3)CN1C(=O)C1CC1)n2[C@H]1[C@H]2CN[C@@H]1C2 [Example 436] | ≤ 0.1 µM | 0.1 to 1 µM
Cc1nc2c(F)c(-c3cccc(Cl)c3Cl)c(CCC#N)cc2c2c1cc([C@H]1C[C@H](n3cc(C45CC(N)(C4)C5)nn3)CN1C(=O)C1CC1)n2[C@H]1[C@H]2CN[C@@H]1C2 [Example 275] | ≤ 0.1 µM | ≤ 0.1 µM
Cc1nc2c(F)c(-c3cccc(Cl)c3Cl)c(CCC#N)cc2c2c1cc([C@H]1C[C@H](Oc3ccnc4c3CCO4)CN1C(=O)C1CC1)n2[C@H]1[C@H]2CN[C@@H]1C2 [Example 329] | ≤ 0.1 µM | ≤ 0.1 µM
Cc1nc2c(F)c(-c3cccc(Cl)c3Cl)c(CCC#N)cc2c2c1cc([C@H]1C[C@H](Oc3cc(N4CC(C(F)F)C4)ccn3)CN1C(=O)C1CC1)n2[C@H]1[C@H]2CN[C@@H]1C2 [Example 371] | ≤ 0.1 µM | ≤ 0.1 µM

Structure (SMILES) | IC50 (KRAS G12D) | IC50 (KRAS G12V)
COc1cccc(CO[C@H]2C[C@H](c3cc4c(C)nc5c(F)c(-c6cccc(Cl)c6Cl)c(CCC#N)cc5c4n3[C@H]3[C@H]4CN[C@@H]3C4)N(C(=O)C3CC3)C2)n1 [Example 267] | ≤ 0.1 µM | ≤ 0.1 µM
COc1ncc(Cl)cc1O[C@H]1C[C@H](c2cc3c(C)nc4c(F)c(-c5cccc(Cl)c5Cl)c(CCC#N)cc4c3n2[C@H]2[C@H]3CN[C@@H]2C3)N(C(=O)C2CC2)C1 [Example 448] | ≤ 0.1 µM | ≤ 0.1 µM
COCCn1cc(O[C@H]2C[C@H](c3cc4c(C)nc5c(F)c(-c6cccc(Cl)c6Cl)c(CCC#N)cc5c4n3[C@H]3[C@H]4CN[C@@H]3C4)N(C(=O)C3CC3)C2)cn1 [Example 441] | ≤ 0.1 µM | ≤ 0.1 µM
Cc1nc2c(F)c(-c3cccc(Cl)c3Cl)c(CCC#N)cc2c2c1cc([C@H]1C[C@H](O[C@H]3CCOC3)CN1C(=O)C1CC1)n2[C@H]1[C@H]2CN[C@@H]1C2 [Example 365] | ≤ 0.1 µM | ≤ 0.1 µM
Cc1nc2c(F)c(-c3cccc(Cl)c3Cl)c(CCC#N)cc2c2c1cc([C@H]1C[C@H](OCc3cncs3)CN1C(=O)C1CC1)n2[C@H]1[C@H]2CN[C@@H]1C2 [Example 97] | ≤ 0.1 µM | ≤ 0.1 µM
Cc1nc(CO[C@H]2C[C@H](c3cc4c(C)nc5c(F)c(-c6cccc(Cl)c6Cl)c(CCC#N)cc5c4n3[C@H]3[C@H]4CN[C@@H]3C4)N(C(=O)C3(C)CC3)C2)cs1 [Example 128] | ≤ 0.1 µM | ≤ 0.1 µM
Cc1nn(CC(F)F)cc1O[C@H]1C[C@H](c2cc3c(C)nc4c(F)c(-c5cccc(Cl)c5Cl)c(CCC#N)cc4c3n2[C@H]2[C@H]3CN[C@@H]2C3)N(C(=O)C2CC2)C1 [Example 408] | ≤ 0.1 µM | ≤ 0.1 µM
[2H]C([2H])(O[C@H]1C[C@H](c2cc3c(C)nc4c(F)c(-c5cccc(Cl)c5Cl)c(CCC#N)cc4c3n2[C@H]2[C@H]3CN[C@@H]2C3)N(C(=O)C2CC2)C1)c1nscc1C [Example 233] | ≤ 0.1 µM | ≤ 0.1 µM
Cc1nc2c(F)c(-c3cccc(Cl)c3Cl)c(CCC#N)cc2c2c1cc([C@H]1C[C@H](Oc3cccc(C#N)c3)[C@H](C)N1C(=O)C1CC1)n2[C@H]1[C@H]2CN[C@@H]1C2 [Example 209] | ≤ 0.1 µM | 0.1 to 1 µM
COc1cccnc1O[C@H]1C[C@H](c2cc3c(C)nc4c(F)c(-c5cccc(Cl)c5Cl)c(CCC#N)cc4c3n2[C@H]2[C@H]3CN[C@@H]2C3)N(C(=O)C2CC2)C1 [Example 307] | 0.1 to 1 µM | 0.1 to 1 µM
CC(=O)N(C)Cc1cn([C@H]2C[C@H](c3cc4c(C)nc5c(F)c(-c6cccc(Cl)c6Cl)c(CCC#N)cc5c4n3[C@H]3[C@H]4CN[C@@H]3C4)N(C(=O)C3CC3)C2)nn1 [Example 271] | ≤ 0.1 µM | ≤ 0.1 µM
Cc1nc2c(F)c(-c3cccc(Cl)c3Cl)c(CCC#N)cc2c2c1cc([C@H]1C[C@H](OCc3cccc(C(=O)N(C)C)c3)CN1C(=O)C1CC1)n2[C@H]1[C@H]2CN[C@@H]1C2 [Example 187] | ≤ 0.1 µM | ≤ 0.1 µM
Cc1nc2c(F)c(-c3cccc(Cl)c3Cl)c(CCC#N)cc2c2c1cc([C@H]1C[C@H](Oc3ccc4ccccc4n3)CN1C(=O)C1CC1)n2[C@H]1[C@H]2CN[C@@H]1C2 [Example 121] | ≤ 0.1 µM | ≤ 0.1 µM
Cc1nc2c(F)c(-c3cccc(Cl)c3Cl)c(CCC#N)cc2c2c1cc([C@H]1C[C@H](Oc3nn(C)c4ccccc34)CN1C(=O)C1CC1)n2[C@H]1[C@H]2CN[C@@H]1C2 [Example 192] | ≤ 0.1 µM | ≤ 0.1 µM
C#Cc1ccc(O[C@H]2C[C@H](c3cc4c(C)nc5c(F)c(-c6cccc(Cl)c6Cl)c(CCC#N)cc5c4n3[C@H]3[C@H]4CN[C@@H]3C4)N(C(=O)C3CC3)C2)nc1 [Example 305] | ≤ 0.1 µM | ≤ 0.1 µM
Cc1nc2c(F)c(-c3cccc(Cl)c3Cl)c(CCC#N)cc2c2c1cc([C@H]1C[C@H](n3ncc(C#N)n3)CN1C(=O)C1CC1)n2[C@H]1[C@H]2CN[C@@H]1C2 [Example 346] | ≤ 0.1 µM | ≤ 0.1 µM
Cc1csnc1C(C)O[C@H]1C[C@H](c2cc3c(C)nc4c(F)c(-c5cccc(Cl)c5Cl)c(CCC#N)cc4c3n2[C@H]2[C@H]3CN[C@@H]2C3)N(C(=O)C2CC2)[C@@H]1C (some centres unmarked) [Example 254] | ≤ 0.1 µM | ≤ 0.1 µM
Cc1nc2c(F)c(-c3cccc(Cl)c3Cl)c(CCC#N)cc2c2c1cc([C@H]1C[C@H](n3cc([C@H](C)O)nn3)CN1C(=O)C1CC1)n2[C@H]1C2CNC1C2 (some centres unmarked) [Example 184] | ≤ 0.1 µM | ≤ 0.1 µM
Cc1nc2c(F)c(-c3cccc(Cl)c3Cl)c(CCC#N)cc2c2c1cc([C@H]1C[C@H](Oc3cnn(C(F)(F)F)c3)CN1C(=O)C1CC1)n2[C@H]1[C@H]2CN[C@@H]1C2 [Example 374] | ≤ 0.1 µM | ≤ 0.1 µM
Cc1nc2c(F)c(-c3cccc(Cl)c3Cl)c(CCC#N)cc2c2c1cc([C@H]1C[C@H](Oc3cc(N4CC(OC(F)F)C4)ccn3)CN1C(=O)C1CC1)n2[C@H]1[C@H]2CN[C@@H]1C2 [Example 369] | ≤ 0.1 µM | ≤ 0.1 µM
